molecular target: influenza A virus minigenome (PB2, PB1, PA, NP proteins) (UniProt P04665); type: cell-based; conditions: read-out: RNP_ Hubei B IC50
Sequence (P04665 whole entry): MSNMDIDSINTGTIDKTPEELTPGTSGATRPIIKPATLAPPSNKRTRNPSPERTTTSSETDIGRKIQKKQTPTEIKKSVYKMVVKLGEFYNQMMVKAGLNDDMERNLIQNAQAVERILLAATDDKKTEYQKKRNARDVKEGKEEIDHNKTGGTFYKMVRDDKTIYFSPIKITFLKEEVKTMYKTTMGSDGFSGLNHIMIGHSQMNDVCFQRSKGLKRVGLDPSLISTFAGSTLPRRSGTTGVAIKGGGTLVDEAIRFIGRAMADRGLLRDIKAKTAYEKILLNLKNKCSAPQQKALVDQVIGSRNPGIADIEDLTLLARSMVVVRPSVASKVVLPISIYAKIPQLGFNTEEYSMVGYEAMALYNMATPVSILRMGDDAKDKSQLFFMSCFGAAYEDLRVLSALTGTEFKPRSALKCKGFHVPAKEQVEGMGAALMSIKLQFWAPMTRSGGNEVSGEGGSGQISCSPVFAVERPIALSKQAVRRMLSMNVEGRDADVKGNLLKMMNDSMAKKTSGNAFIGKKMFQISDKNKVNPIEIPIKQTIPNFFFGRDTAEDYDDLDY

Compound | IC50 [µM]
NC(=O)c1cc(-c2ccc(OCc3cnco3)cc2)c(C(F)(F)F)[nH]c1=O [Example 267, 5-(4-(oxazol-5-ylmethoxy)phenyl)-2-oxo-6-(trifluoromethyl)-1,2-dihydropyridine-3-carboxamide] | 25 to 50
NC(=O)c1cc(-c2ccc(OCC3COCC(COCC(F)F)O3)cc2)c(C(F)(F)F)[nH]c1=O (single isomer, unassigned) [Example 369, 5-(4-((6-((2,2-difluoroethoxy)methyl)-1,4-dioxan-2-yl)methoxy)phenyl)-2-oxo-6-(trifluoromethyl)-1,2-dihydropyridine-3-carboxamide] | 5 to 10
C[C@@H]1COC[C@@H](COc2ccc(-c3cc(C(N)=O)c(=O)[nH]c3C(F)(F)F)cc2)O1 [Example 329, 5-(4-(((2S,6R)-6-methyl-1,4-dioxan-2-yl)methoxy)phenyl)-2-oxo-6-(trifluoromethyl)-1,2-dihydropyridine-3-carboxamide] | 25 to 50
NC(=O)c1cc(-c2ccc(OCC3COCC4(CC4)O3)cc2)c(C(F)(F)F)[nH]c1=O (single isomer, unassigned) [Example 335, (4-(4,7-dioxaspiro[2.5]octan-5-ylmethoxy)phenyl)-2-oxo-6-(trifluoromethyl)-1,2-dihydropyridine-3-carboxamide] | 5 to 10
C[C@]1(CC#N)COC[C@@H](COc2ccc(-c3cc(C(N)=O)c(=O)[nH]c3C(F)(F)F)cc2)O1 [Example 411, 5-(4-(((2S,6S)-6-(cyanomethyl)-6-methyl-1,4-dioxan-2-yl)methoxy)phenyl)-2-oxo-6-(trifluoromethyl)-1,2-dihydropyridine-3-carboxamide] | 5 to 10
COC[C@@]1(CCl)COC[C@@H](COc2ccc(-c3cc(C(N)=O)c(=O)[nH]c3C(F)(F)F)cc2)O1 [Example 418, 5-(4-(((2S,6S)-6-(chloromethyl)-6-(methoxymethyl)-1,4-dioxan-2-yl)methoxy)phenyl)-2-oxo-6-(trifluoromethyl)-1,2-dihydropyridine-3-carboxamide] | 5 to 10
NC(=O)c1cc(-c2ccc(OCC3COCCO3)cc2)c(C(F)(F)F)[nH]c1=O (single isomer, unassigned) [Example 237, 5-(4-((1,4-dioxan-2-yl)methoxy)phenyl)-2-oxo-6-(trifluoromethyl)-1,2-dihydropyridine-3-carboxamide] | 25 to 50
CC1(C)CC[C@@H](COc2ccc(-c3cc(C(N)=O)c(=O)[nH]c3C(F)(F)F)cc2)O1 [Example 300, (S)-5-(4-((5,5-dimethyltetrahydrofuran-2-yl)methoxy)phenyl)-2-oxo-6-(trifluoromethyl)-1,2-dihydropyridine-3-carboxamide] | 10 to 25

same assay, conditions: read-out: RNP_Hubei B

Compound | IC50 [µM]
NC(=O)c1cc(-c2ccc(OCc3cncc(C4(O)COC4)c3)cc2)c(C(F)(F)F)[nH]c1=O [Example 181, 5-(4-((5-(3-hydroxyoxetan-3-yl)pyridin-3-yl)methoxy)phenyl)-2-oxo-6-(trifluoromethyl)-1,2-dihydropyridine-3-carboxamide] | 25 to 50
NC(=O)c1cc(-c2ccc(CN3C[C@H]4CC[C@@H](C3)O4)cc2)c(C(F)(F)F)[nH]c1=O [Example 31, 5-(4-(((1R,5S)-8-oxa-3-azabicyclo[3.2.1]octan-3-yl)methyl)phenyl)-2-oxo-6-(trifluoromethyl)-1,2-dihydropyridine-3-carboxamide] | 1 to 5
CCOCC1COCC(COc2ccc(-c3cc(C(N)=O)c(=O)[nH]c3C(F)(F)F)cc2)O1 (single isomer, unassigned) [Example 360, 5-(4-((6-(ethoxymethyl)-1,4-dioxan-2-yl)methoxy)phenyl)-2-oxo-6-(trifluoromethyl)-1,2-dihydropyridine-3-carboxamide] | 5 to 10
CC(Oc1ccc(-c2cc(C(N)=O)c(=O)[nH]c2C(F)(F)F)cc1)c1cccc(C#N)c1 (single isomer, unassigned) [Example 98, (R or S)-5-(4-(1-(3-cyanophenyl)ethoxy)phenyl)-2-oxo-6-(trifluoromethyl)-1,2-dihydropyridine-3-carboxamide] | 1 to 5

Reference: US20240360082A1, “SUBSTITUTED PYRIDONE COMPOUNDS USEFUL TO TREAT ORTH[…]” (priority 2021, published 2024)
